# Test results published in PMC5086919, “Antileukemic Scalarane Sesterterpenoids and Meroditerpenoid from Carteriospongia (Phyllospongia) sp., Induce Apoptosis via Dual Inhibitory Effects on Topoisomerase II and Hsp90” (Scientific Reports, 2016).
# Read-outs that look alike come from different tables or passages of the source.
# Assays:
# Molt 4 cells [1] = assay: MTT antiproliferative assay, leukemia Molt 4 cells; format: cell-based; details: Homo sapiens
# Molt 4 cells [2] = assay: ROS generation, carboxy-H2DCFDA flow cytometry; format: cell-based, human; details: 0.0625 μg/mL
# Procedure: (§1) Oxidative stress is manifested by ROS overexpression and cannot be balanced by the available antioxidant machinery. Compound 1 can damage the integrity of mitochondria, which are the major production sites of the superoxide anion, […]. The induction of the intracellular formation of ROS by 1 was determined with a carboxyl derivative of fluorescein, carboxy-H2DCFDA dye using flow cytometric analysis. […] In addition, ROS generation could induce ER stress leading to mitochondria-related apoptosis. To further investigate if ER stress is involved in the apoptotic effect induced by 1, Western blot analysis was used to determine the expression of ER stress-related proteins. […] Furthermore, the effect of 1 on the release of intracellular Ca^2+, was evaluated using fluorescent calcium indicator, Fluo 3. […] The induction of the typical executor caspases-3 and −7, as well as γH2AX, was also observed using Western blot analysis (Fig. 7D). To confirm the induction of DNA damage by 1 in Molt 4 cells, a comet assay under neutral electrophoresis condition was utilized. The effect of 1 (0.0625 μg/mL) at different time intervals (0, 3, 6 and 9 h) on the level of nuclear DNA integrity was determined. […] The DNA migration was represented by the induction of DSBs in a time-dependent increase, as indicated by the abnormal tails’ sizes in the comet assay.
# (§2) These assays were performed as described previously. […] In brief, the treated cells were labeled with a specific fluorescent dye for 30 min. After labeling, cells were washed with PBS and resuspended in PBS at a concentration of 1 × 10^6 cells/mL before analysis via flow cytometry.
# Molt 4 cells [3] = assay: Intracellular Ca2+ accumulation, Fluo 3 flow cytometry; format: cell-based, human; details: 0.0625 μg/mL
# Procedure: as §1, §2
# Molt 4 cells [4] = assay: MMP disruption, JC-1 staining flow cytometry; format: cell-based, human; details: 0, 0.0625, 0.125 and 0.25 μg/mL, 24 h
# Procedure: as §2
# [5] = test system: ER stress-related proteins in Molt 4 cells; assay: Western blot of ER stress-related proteins; format: cell-based, human; details: 0.0625 μg/mL, time-dependent
# Procedure: (§3) Oxidative stress is manifested by ROS overexpression and cannot be balanced by the available antioxidant machinery. Compound 1 can damage the integrity of mitochondria, which are the major production sites of the superoxide anion, […]. The induction of the intracellular formation of ROS by 1 was determined with a carboxyl derivative of fluorescein, carboxy-H2DCFDA dye using flow cytometric analysis. […] In addition, ROS generation could induce ER stress leading to mitochondria-related apoptosis. To further investigate if ER stress is involved in the apoptotic effect induced by 1, Western blot analysis was used to determine the expression of ER stress-related proteins. […] Furthermore, the effect of 1 on the release of intracellular Ca^2+, was evaluated using fluorescent calcium indicator, Fluo 3. […] The effect of 1 (0.0625 μg/mL) at different time intervals (0, 3, 6 and 9 h) on the level of nuclear DNA integrity was determined. […]
# (§4) Cell lysates were prepared by treating the cells for 30 min in RIPA lysis buffer, 1% Nonidet P-40, 0.5% sodium deoxycholate, 0.1% sodium dodecyl sulphate (SDS), 1 mM sodium orthovanadate, 100 μg/mL phenylmethylsulfonyl fluoride and 30 μg/mL aprotinin) (all chemicals were from Sigma)[38]. The lysates were centrifuged at 20,000 × g for 30 min, and the protein concentration in the supernatant was determined using a BCA protein assay kit (Pierce). […]
# [6] = test system: PARP and caspases in Molt 4 cells; assay: Western blot of apoptosis-related proteins; format: cell-based, human; details: 0.0625 μg/mL, time-dependent
# Procedure: as §3, §4
# Molt 4 cells [7] = assay: Neutral comet assay for DNA double-strand breaks; format: cell-based, human; details: 0.0625 μg/mL; 0, 3, 6 and 9 h; neutral electrophoresis
# Procedure: as §3
# The assay was carried out using a CometAssayTM Kit (Trevigen, Gaithersburg, MD, USA) following the manufacturer’s protocol for the neutral Comet assay. […] The fluorescence images were analyzed using the TriTek Comet Image program to circumscribe the “head” and the “tail” regions of each comet and the integrated fluorescence values of each defined area were recorded. The comet length was measured from the trailing edge of the nucleus to the leading edge of the tail. […]
# K562 cells = assay: MTT antiproliferative assay, leukemia K562 cells; details: Homo sapiens, K562, 72 h, read-out: IC50, cytotoxicity, Leukemia K562
# From the text: (§5) Several cancer cell lines including leukemia K562, Molt 4, and HL 60 cells, prostate cancer LNCaP cells, colon cancer DLD-1 cells and breast cancer T-47D cells were used to evaluate the antiproliferative activity.
# (§6) The cell lines were obtained from the American Type Culture Collection (ATCC, Manassas, VA, USA). […] Dimethyl sulfoxide (DMSO), 3-(4,5-dimethylthiazol-2-yl)-2,5-diphenyl-tetrazolium bromide (MTT) and all other chemicals were purchased from Sigma-Aldrich (St. Louis, MO, USA).
# U937 cells = assay: MTT antiproliferative assay, lymphoma U937 cells; details: Homo sapiens, U-937, 72 h, read-out: IC50, cytotoxicity, Lymphoma U937
# Sup-T1 cells = assay: MTT antiproliferative assay, lymphoma Sup-T1 cells; details: Homo sapiens, SUP-T1, 72 h, read-out: IC50, cytotoxicity, Lymphoma Sup-T1
# T-47D cells = assay: MTT antiproliferative assay, breast cancer T-47D cells; details: Homo sapiens, T47D, 72 h, read-out: IC50, cytotoxicity, Breast T-47D
# From the text: as §5, §6
# LNCaP cells = assay: MTT antiproliferative assay, prostate cancer LNCaP cells; details: Homo sapiens, 72 h, read-out: IC50, cytotoxicity, Prostate LNCaP
# From the text: as §5, §6
smiles,measurement,setting,value
"CC[C@@]1(C)CCC[C@]2(C)[C@H]3C[C@@H](OC(=O)C[C@@H](C)O)[C@]4(C)[C@@H](C=O)C(C(C)=O)=CC[C@H]4[C@]3(C)CC[C@@H]12 (relative stereo) [Compound 1, 12β-(3′β-hydroxybutanoyloxy)-20,24-dimethyl-24-oxo-scalara-16-en-25-al]",IC50,"Molt 4 cells [1]; 72 h, read-out: IC50, cytotoxicity, Leukemia Molt 4",0.01 µg/mL
same,IC50,"Molt 4 cells [1]; molar value in brackets, read-out: antiproliferative activity (IC50), Molt 4",19.1 nM
same,increase in ROS levels compared with MFI of control,Molt 4 cells [2]; 0.5 h,2.09 fold
same,increase in ROS levels compared with MFI of control,Molt 4 cells [2]; 1 h,1.51 fold
same,increase in ROS levels compared with MFI of control,Molt 4 cells [2]; 2 h,1.06 fold
same,increase in ROS levels compared with MFI of control,Molt 4 cells [2]; 3 h,1.01 fold
same,increase in intracellular Ca2+ accumulation compared to MFI of control,Molt 4 cells [3]; 0.5 h,1.03 folds
same,increase in intracellular Ca2+ accumulation compared to MFI of control,Molt 4 cells [3]; 1 h,1.05 folds
same,increase in intracellular Ca2+ accumulation compared to MFI of control,Molt 4 cells [3]; 2 h,1.06 folds
same,increase in intracellular Ca2+ accumulation compared to MFI of control,Molt 4 cells [3]; 3 h,1.37 folds
same,increase in intracellular Ca2+ accumulation compared to MFI of control,Molt 4 cells [3]; 6 h,2.41 folds
same,increase in intracellular Ca2+ accumulation compared to MFI of control,Molt 4 cells [3]; 18 h,1.06 folds
same,mitochondrial membrane potential,Molt 4 cells [4],disruption in mitochondrial membrane potential
same,levels of ER stress-related proteins,[5],"promoted the levels of Bip, Chop, Grp 94 as well as the activation and cleavage of ATF 6 but suppressed the levels of PERK and IRE 1"
same,PARP and caspase cleavages,[6],"significant increase of PARP, caspases-8 and −9 cleavages"
same,"DNA migration (DSBs), comet assay",Molt 4 cells [7],increased the degree of DNA migration
same,IC50,K562 cells,0.01 µg/mL
same,IC50,U937 cells,0.01 µg/mL
same,IC50,Sup-T1 cells,0.13 µg/mL
same,IC50,T-47D cells,2.19 µg/mL
same,IC50,LNCaP cells,13.9 µg/mL
